Laboratory results taken from patent publication US10921327B2, “Probes for quantitative imaging of thiols in various environments” (Baylor College of Medicine, priority 2014, dated 2021).
“Also recorded” adds a separate entry of the source. Structures can show the parent of a compound that is named as a salt. Marks after values point to notes of the source that are not given here.

Key:
[1] = Equilibrium (dissociation constant) of probe and GSH reaction, UV-Vis/fluorescence; format: binding; conditions: reaction with various concentration of GSH in water/PBS pH 7.4; based on UV-Vis; read-out: Kd′ observed (apparent) dissociation constant
Method: Applicants also determined Keq between TQ Green and GSH and the relationship of the ratiometric change as a function of GSH concentration. Kd′ is the apparent dissociation constant for the reaction between TQ Green and GSH. The following equation can be derived:
Plotting (R−Rmin)/(Rmax−R) as a function of GSH concentration afforded a superb linear relationship with r^2=0.999 (FIGS. 6-7).
TQ Green was dissolved in PBS buffer (10 mM, pH 7.4) containing 1% DMSO with concentration at 32 μM. GSH was dissolved in the same PBS buffer with concentration from 0-80 mM. Above solutions were mixed at 1:1 ratio. All solutions were protected with nitrogen and stored in glove box to prevent any oxygen entering the solution. Samples of all solutions were taken out at 1, 18, 72, and 144 hours after mixing. UV-Vis and fluorescence were measured for all solutions.
(§1) Compounds 3b-d were dissolved in DMSO (10 mM) and 1 eq of 2 M β-mercaptoethanol (BME) was added. Compounds 3a and TQ Green were dissolved in PBS buffer (10 mM, pH 7.4) with 1% DMSO. GSH solution was added to reach a final concentration of 80 mM with compound 3a at 10 μM and TQ Green at 16 μM, respectively. All solutions were then monitored continuously with UV-Vis and fluorimeter for 2 hours (Table 1).

[2] = Solubility; format: physicochemical; conditions: for solubility: PBS buffer, aqueous buffer
[3] = UV-Vis absorption, fluorescence and quantum yield; format: physicochemical; conditions: for Quantum Yield (PBS): λex = 479 nm (TQ Green), 406 nm (TQ Green-GSH)
From the text: TQ Green absorbs at 479 nm and fluoresces at 590 nm (λex=488 nm, FIG. 3). The extinction coefficients of TQ Green and TQ Green-GSH at their maximum absorption wavelengths are (2.3±0.2)×10^4 M^−1·cm^−1 (a, =479 nm, Table 2) and (1.6±0.2)×10^4 M^−1·cm^−1 (λmax=407 nm, Table 1), respectively. Upon reacting with GSH, the Abs and Fl peaks shift hypsochromically to 406 and 463 nm (λex=405 nm), respectively. The Abs of TQ Green and TQ Green-GSH (the adduct between TQ Green and GSH) are close to 488 and 405 nm, respectively, which are two commonly used laser wavelengths for confocal microscopes. […]
NMR spectra were recorded on a Varian NMR (^1H at 400 MHz) spectrometer. Chemical shifts (δ) were given in ppm with reference to solvent signals [^1H NMR: CDCl3 (7.26), CD3OD (3.31)]. UV-Vis measurements were performed with 2×10 mm quartz cuvette in Cary 60 UV-is Spectrometer. Fluorescence measurements were performed with the same quartz cuvette in Cary Eclipse Fluorescence Spectrophotometer with an excitation slit of 5 nm, an emission slit of 10 nm and PMT at 650 V. Flash chromatography was performed on a Teledyne ISCO CombiFlashRf200. Olympus FV1000 laser scanning confocal microscope system was used for cell imaging. ESI mass spectrometry was measured on a BrukerMS microTOF ESI, at the Shared Equipment Authority at Rice University. Flow cytometry was performed on BD LSR II Flow Cytometer at BCM core facilities.
As summarized in Table 5, quantum yields of synthesized GSH probes and a GSH adduct with Rhodamine 123 as the standard were analyzed. Quantum yields were determined using a comparative method described previously. The bromine atom on the phenyl ring potentially enhances the push-pull effect of the coumarin-based fluorophore, thus increases the quantum yield.

[4] = Reaction kinetics and reversibility of probe with GSH (UV-Vis); conditions: 10 mM GSH in PBS, room temperature; TQ Green 16 μM, probe 3a 10 μM
Method: The reaction between TQ Green and GSH is reversible.
The second-order rate constant between TQ Green and GSH is 0.150±0.001M^−1·s^−1. There were no appreciable Abs changes observed after 20 minutes. Following a pause for another 80 minutes to ensure that the equilibrium between TQ Green and GSH was fully established, Applicants added two equivalents of an irreversible Michael acceptor (5,6-dihydro-2H-pyran-2-one) to deplete all the GSH in solution (FIG. 4A).
GSH in PBS was added to a solution of TQ Green in PBS buffer (10 mM, pH 7.4) containing 1% DMSO. The final concentrations of GSH and TQ Green were 10 mM and 16 μM, respectively. The solutions were then monitored continuously with UV-Vis spectrometer (FIGS. 21A-D).

[5] = Reactivity of probes against β-mercaptoethanol in DMSO; format: binding
Method: as §1

[6] = system: PANC-1 cells; assay: GSH level changes in PANC-1 cells upon DEM treatment (TQ Green live imaging); format: cell-based
Method: PANC-1 cells were treated with diethyl maleate (50 μM) for 24 hours and 2 hours to inhibit and stimulate GSH levels, respectively. All the cells were imaged 24 hours after starting the experiment. Results are statistical analyses of more than 25 cells. P values shown are based on unpaired student t-tests. Error bars represent standard deviations.
Applicants also treated PANC-1 cells with DEM for a very short time to stimulate the uptake of cysteine, thus increasing the GSH levels. After removal of DEM, the cells were further incubated under normal conditions for an additional 22 hours before imaging. […] Importantly, the GSH level obtained in DEM non-treated cells after 24 hours was essentially the same as the value measured at time zero (P=0.63), indicating excellent reproducibility of live imaging based GSH quantification.
PANC-1 cells were incubated with DEM (50 μM) for 2 hours for stimulation of cysteine uptake. After replacing with fresh medium, cells were cultured at normal conditions for another 22 hours. A separate dish of PANC-1 cells were incubated with DEM (50 μM) as an inhibitor for 24 hours. […] GSH concentrations were calculated based on the calibration curve. FACS was performed from harvested cells after treatment, fluorescent intensities were recorded with 405 nm laser/420-460 nm filter (pacific blue channel), and 488 nm laser/515-545 nm filter (FITC channel). […]

[7] = 10 mM solution, capped tube, 10 hour time period, HPLC 254 nm
Method: A GSH solution (10 mM) was placed in a capped Eppendorf tube. Samples of solution were taken out for HPLC measurement every two hours. […] The percentage was calculated from the HPLC peak area monitored at 254 nm.

[8] = methanol; cited from earlier work
[9] = Hydrolysis of TQ Green-AM in PBS and diluted HeLa cell lysate (HPLC UV-vis/MS); format: in vitro ADME; conditions: 40 μM, 37° C.
Method: In order to allow TQ Green to efficiently penetrate into cells for GSH measurements, Applicants converted the carboxylic acid group to an acetoxymethyl (AM) ester (FIG. 10). Once inside cells, the AM ester will be readily hydrolyzed by esterases to regenerate TQ Green. To verify this, Applicants incubated TQ Green-AM (FIG. 11, 40 μM) in PBS for 2 hours and in a 500 times diluted HeLa cell lysate for 10 hours at 37° C. (Note: the dilution factor for the cell lysate is calculated based on the fact that ˜400,000 of HeLa cells, which have a total volume of ˜2 μL, were lysed in 1 mL of lysis buffer, resulting in 500 times dilution of cellular components, Table 3). A mixture of TQ Green and TQ Green-AM standard samples and the reaction mixtures after incubation in PBS and in cell lysate were separated using high performance liquid chromatography (HPLC) with a tandem of UV-vis and mass spectrometer (MS) detectors.
TQ Green-AM (40 μM) was incubated in PBS for 2 hours and in a 500 times diluted HeLa cell lysate for 10 hours at 37° C. The reaction products were analyzed by HPLC with a tandem of UV-vis and MS detectors. Analytical standards TQ Green and TQ Green-AM (red trace C) were used to determine the retention time of the corresponding compounds. […] Under the elution conditions used, TQ Green and TQ Green-GSH cannot be separated. However, their identities were confirmed by MS. […]

[10] = system: cells; assay: Confocal imaging of probe interacting with cells (cell penetration); format: cell-based
Method: FIG. 10 provides confocal images at 488 nm channel of TQ Green (acid form, FIG. 10A), and TQ Green-AM (ester form, FIG. 10B) interacting with cells.
All cell lines used in this study were purchased from American Type Culture Collection (ATCC) and grown in DMEM (Gibco, 11965) media supplemented with 10% FBS and 1% 1003 Pen Strep (Gibco). Cells were cultured under a controlled atmosphere (37° C., 5% CO2). Glass dishes were used for cell culture due to confocal scanning requirements. Cells were treated with TQ Green-AM (20 nM-1 μM with 0.0025-1% DMSO in PBS) for 30 minutes, followed by two washing steps with tryptan blue and PBS prior to imaging. Fluorescent images were acquired with 405 nm laser/430-470 nm filter and 488 nm laser/575-620 nm filter. All the microscope settings were kept consistent in each experiment.

[11] = Log D in octanol-PBS (pH 7.4) biphasic system; format: physicochemical; conditions: pH 7.4, read-out: Log D, estimated value based on HPLC result
From the text: To further understand TQ Green distribution between hydrophobic and hydrophilic environments, Applicants measured the Log D values of TQ Green and TQ Green-GSH using an octanol-PBS (pH 7.4) biphasic system (Table 2). […] In addition, Applicants discovered that the absorbance maximum of TQ Green shifts from 480 nm to 455 nm when changing the solvents from PBS to octanol. Applicants hypothesize that if TQ Green is distributed in lipid membranes, the absorbance maximum and fluorescence intensity will change. […] Consistent with the Log D measurements, this experiment also supports the hypothesis that TQ Green accumulates in lipid membranes. Considering the high quantum yield of TQ Green in hydrophobic solvents, lipid enrichment of TQ Green seemingly complicates intracellular GSH quantification. […] However, the Kd′ values may be different under calibration conditions and inside cells, which may introduce a systemic error.

[12] = cited from earlier work

Structure (SMILES): CCN(CC)c1ccc2cc(/C=C/C(=O)c3ccc(C(=O)O)cc3)c(=O)oc2c1 [Compound 3a]
- Kd [1]: 1500 µM
- solubility [2]: > 500 µM
- Quantum Yield (Methanol) ([3]; methanol, Rhodamine 123 as standard): 0.062 ± 0.002
- Time to reach 95% of conversion [4]: ~6 min

Structure (SMILES): CCN(CC)c1ccc2cc(/C=C/C(=O)c3ccccc3)c(=O)oc2c1 [Compound 3b]
- solubility [2]: < 10 µM

Structure (SMILES): CCN(CC)c1ccc2cc(/C=C(\C)C(=O)c3ccccc3)c(=O)oc2c1 [Compound 3c]
- Michael addition between thiol and probe [5]: significantly blocks the Michael addition
- solubility [2]: < 10 µM

Structure (SMILES): CCN(CC)c1ccc2cc(/C=C/C(=O)c3ccccc3O)c(=O)oc2c1 [Compound 3d]
- Kd ([5]; β-mercaptoethanol in DMSO, read-out: Kd′ observed dissociation constant): ~2000 µM
- solubility [2]: < 10 µM

Structure (SMILES): CCOC(=O)/C=C\C(=O)OCC [DEM, diethyl maleate]
- Increase in GSH levels ([6]; 50 μM for 2 hours, then 22 hours normal conditions (stimulation)): 28%
- Decrease in GSH levels ([6]; 50 μM for 24 hours (inhibition)): 27%

Structure (SMILES): N[C@@H](CCC(=O)N[C@@H](CS)C(=O)NCC(=O)O)C(=O)O [GSH, glutathione]
- Solubility in octanol [2]: not soluble
- GSH oxidized in air [7]: About 20%

Structure (SMILES): COC(=O)c1ccccc1-c1c2ccc(=N)cc-2oc2cc(N)ccc12.Cl [Rhodamine 123]
- Quantum Yield, used as standard [8]: 0.94*

Structure (SMILES): CCN(CC)c1ccc2cc(/C=C/C(=O)c3ccc(C(=O)OCOC(C)=O)cc3Br)c(=O)oc2c1 [TQ Green-AM]
- Hydrolysis in diluted cell lysate ([9]; 500 times diluted HeLa cell lysate, 10 hours): completely converted to a mixture of TQ Green and TQ Green-GSH adduct; also recorded: completely hydrolyzed
- Hydrolysis in PBS ([9]; PBS, 2 hours): resistant to hydrolysis; also recorded: did not show appreciable hydrolysis
- Cell penetration (confocal, 488 nm channel) [10]: able to penetrate through cell the membrane

Structure (SMILES): CCN(CC)c1ccc2cc(C(CC(=O)c3ccc(C(=O)O)cc3Br)SCC(NC(=O)CCC(N)C(=O)O)C(=O)NCC(=O)O)c(=O)oc2c1 (stereo not shown) [TQ Green-GSH]
- Solubility in methanol ([2]; methanol): ^aTQ Green-GSH is not soluble in methanol
- Solubility in octanol [2]: not soluble
- Abs Max Wavelength ([3]; PBS pH 7.4): 406 nm
- Fl Emission Max Wavelength ([3]; PBS pH 7.4, λex = 488 nm (TQ Green), λex = 405 nm (TQ Green-GSH)): 463 nm
- Quantum Yield (PBS) [3]: 0.0059±0.0003
- Quantum Yield (PBS) ([3]; listed as drawing 20): 0.0059 ± 0.0003
- logD [11]: < -1

Structure (SMILES): FC(F)(F)c1ccc(S)cc1 [p-trifluorobenzenethiol]
- pKa [12]: 5.5
